Measurements reported in US11230534B2, “KDM1A inhibitors for the treatment of disease” (Imago Biosciences, Inc., priority 2015, dated 2022).

Experiments:
Assay type in all cases: physicochemical
[1] = Storage at elevated temperature and humidity (40° C./75% RH, 25° C./95-97% RH; XRPD, HPLC); details: for Storage at 40° C. and 75% RH and 25° C. and 95% RH / exposure to humidity (form, purity): scaled-up salts; for change of form under temperature and humidity conditions: conclusion
Method: Example 1 was dissolved in solvent (240 mg in 2.4 mL, 10 volumes) to form stock solutions and then dispensed into vials (400 μL/˜40 mg per vial). The solutions were treated with 1 equivalent of counterions (for hydrochloric acid (HCl), sulfuric acid (H2SO4 or “SO4”), methanesulfonic acid (mesylate or “MSA”), phosphoric acid (H3PO4 or “PHOA”), and L-tartaric acid (TAR), 77 μL for 1M; for fumaric acid (FUA), 154 μL for 0.5M) using stock solutions. The solutions/suspensions were then cooled down to 0° C. at 0.2° C./min and stirred at 0° C. overnight. The resulting solids were analyzed by XRPD and those that were amorphous or poorly crystalline were then matured for 5 days. If after cooling to 0° C. a clear solution or gum was obtained, the mother liquors were removed from the vials, split in two and anti-solvent (MTBE or heptane, 400 μl) added to each of the aliquots. After anti-solvent addition, the samples were matured for 5 days. After maturation, clear solutions and gums were allowed to evaporate at ambient conditions. Suspensions were filtered, air-dried and characterized by XRPD. Any resulting crystalline solids were characterized by high resolution XRPD, 1H NMR, HPLC and one week storage at 40° C. and 75% RH.
Example 1 was dissolved in methyethyl ketone (MEK) or acetonitrile (MeCN) (20 mg in 200 μl, 10 vol) at ambient conditions. The solutions were then heated to 50° C., treated with 1.1 or 2.1 eq of acid and stirred at this temperature for 1 hour. The resulting solutions/suspensions were then cooled down to 5° C. at 0.1° C./min and held overnight. Any solids obtained were analyzed by XRPD and those that were amorphous or poorly crystalline were then matured between 50° C./ambient on an 8-hour cycle. Any clear solutions were left to evaporate slowly at ambient conditions. If the samples evaporated to form gums, these were dissolved in IPA (10 vol, 200 μL) and then matured. Any solutions with gums present were also matured between 50° C./ambient on an 8 hour cycle. Any resulting crystalline solids were characterized by high resolution XRPD, NMR, HPLC, IC (for inorganic counter-ions) and one week storage at 40° C. and 75% RH.
In the first experiment, Example 1 was dissolved in MEK or MeCN (100 mg in 1 mL, 10 vol) at ambient conditions. The solutions were then heated to 50° C., treated with 2.1 eq of p-toluene sulfonic acid monohydrate (1M in THF, 405 μL) and stirred constant temperature for 1 hour. The resulting suspensions were then cooled down to 5° C. at 0.1° C./min overnight. Any solids obtained were analyzed by XRPD and those that were amorphous or weakly crystalline were then matured between 50° C./ambient on an 8-hour cycle for 7 days. Any resulting crystalline solids were characterized by high resolution XRPD, ^1H NMR, HPLC, TGA, DSC and one week storage at 40° C. and 75% RH. […] However, after further maturation to try and improve the crystallinity, both tosylate salts were consistent with pTSA Form 2 by XRPD. […]
(§1) A preliminary polymorphism assessment was carried out on the three most crystalline salt forms, the mono tartrate (TAR Form 1), mono oxalate (OXA Form 1), and bis tosylate (pTSA Form 2). Each salt was treated with the relevant solvent (10 vol, 30 mg in 300 μL) at 25° C. The samples were stirred for 10 minutes and then heated to 50° C. for 1 hour. The resulting suspensions were matured for 24 hours and any resulting solutions were allowed to evaporate slowly. After maturation or evaporation, the solids were filtered and air-dried before analysis by XRPD.
Amorphous bis tosylate was suspended in the solvent system below (30 mg in 150 μl) at ambient conditions. The suspensions were shaken in the maturation chamber between ambient and 50° C. for 19 h (8 h cycles), then allowed to stand at ambient conditions for 10 min. An aliquot of the solid was air dried and analyzed by XRPD and then placed for 1 week at 40° C./75% RH and re-analyzed. […]

[2] = Polymorphism assessment (slurry, maturation, evaporation; XRPD); details: 10 solvents, maturation 24 hours
Method: as §1
Amorphous bis tosylate was suspended in the solvent system below (30 mg in 150 μl) at ambient conditions. The suspensions were shaken in the maturation chamber between ambient and 50° C. for 19 h (8 h cycles), then allowed to stand at ambient conditions for 10 min. An aliquot of the solid was air dried and analyzed by XRPD and then placed for 1 week at 40° C./75% RH and re-analyzed. If solutions were recovered, the solvents were allowed to evaporate at ambient conditions and the residues were initially analyzed by XRPD.
(8 h cycles). After 4 days the solids were filtered and air dried. Solids obtained were initially analyzed by XRPD. Maturation in n-heptane, diethyl ether, ethyl acetate, isopropyl acetate, methylisobutyl ketone, 2-propanol, methylethyl ketone, acetone, tert-butylmethyl ether, cyclohexane, 1,4-dioxane, toluene, chloroform, 1,2-dimethoxyethane, tetrahydrofuran, acetonitrile, nitromethane, and 2-propanol:water 95:5 yielded filtered solids of Form 2.
Supernatants from the maturation experiments and solutions from cooling were allowed to slowly evaporate at ambient conditions. The residues were analyzed by XRPD. Slow evaporation from the following supernatants yielded: dimethyl sulfoxide, oil; water, oil; N,N-dimethylformamide, gum; N-methylpyrrolidone, oil; tetrahydrofuran:water 95:5, gum; and acetone:water 95:5 gum. Solutions obtained after the solubility assessment were placed in a fridge (4° C.) for 2 days and in a freezer (−20° C.) for another 2 days. No solids were recovered. […]

[3] = Variable temperature XRPD (VT-XRPD)
Method: Samples run under ambient conditions were prepared as flat plate specimens using powder as received without grinding. Approximately 1-2 mg of the sample was lightly pressed on a glass slide to obtain a flat surface. Samples run under non-ambient conditions were mounted on a silicon wafer with heat-conducting compound. The sample was then heated to the appropriate temperature at 20° C./min and subsequently held isothermally for 1 minute before data collection was initiated.

[4] = Gravimetric Vapour Sorption (GVS); details: for GVS water uptake: full cycle, 25° C.; for hygroscopicity: conclusion
Method: Sorption isotherms were obtained using a SMS DVS Intrinsic moisture sorption analyzer, controlled by DVS Intrinsic Control software v1.0.1.2 (or v 1.0.1.3). The sample temperature was maintained at 25° C. by the instrument controls. The humidity was controlled by mixing streams of dry and wet nitrogen, with a total flow rate of 200 mL/min The relative humidity was measured by a calibrated Rotronic probe (dynamic range of 1.0-100% RH), located near the sample. The weight change, (mass relaxation) of the sample as a function of % RH was constantly monitored by the microbalance (accuracy ±0.005 mg).
Typically 5-20 mg of sample was placed in a tared mesh stainless steel basket under ambient conditions. The sample was loaded and unloaded at 40% RH and 25° C. (typical room conditions). A moisture sorption isotherm was performed as outlined below (2 scans giving 1 complete cycle). The standard isotherm was performed at 25° C. at 10% RH intervals over a 0-90% RH range. Data analysis was carried out using Microsoft Excel using DVS Analysis Suite v6.2 (or 6.1 or 6.0).

[5] = Chemical stability by HPLC purity re-test / degradation; details: for Initial Purity: HPLC 1-24 hours post-synthesis
Method: Various lots of Example 1 were analyzed by HPLC shortly after synthesis (analysis from 1-24 hours post-synthesis) and re-tested for purity a unit of time later.
Purity analysis was performed on an Agilent HP1100 series system equipped with a diode array detector and using ChemStation software vB.04.03 using one of the methods detailed below: […]

Compound	chemical stability relative to free form ([1]; limited stability studies)	Storage at 40° C. and 75% RH and 25° C. and 95% RH / exposure to humidity (form, purity) [1]	change in crystalline form in polymorphism assessment [2]	temperature up to which crystalline form is unchanged (VT-XRPD) [3] [°C]	form by XRPD post GVS [4]	GVS water uptake [4] [% w/w]	loss in purity on storage ([1]; 40° C. and 75% RH) [%]	change of form under temperature and humidity conditions [1]	Storage at 40° C. and 75% RH (form by XRPD) ([1]; one week)	hygroscopicity [4]	behaviour of free base form at high humidity ([1]; high humidity)	Re-Test Purity ([5]; Lot 1, free base, 49 days between tests) [%]	Initial Purity ([5]; Lot 1, free base) [%]	Re-Test Purity ([5]; Lot 2, free base, 16 days between tests) [%]	Initial Purity ([5]; Lot 2, free base) [%]	stability of free base form ([5]; ambient conditions)
tosylate	improved chemical stability over the free form	no changes in the form or purity	no change in crystalline form was noted in 9	170	No change in form was observed	~5										
O=C(O)C(O)C(O)C(=O)O (stereo not drawn) [tartrate]		changes in crystallinity and form	five of the tartrate samples changed in form		decreased crystallinity and a change in form	~30	> 30	change under both temperature and humidity conditions	no change in form was observed	highly hygroscopic						
CN1CCN(C(=O)C(CN[C@@H]2C[C@H]2c2ccc(F)cc2)NC(=O)c2ccc(-n3ccnn3)cc2)CC1 (stereo partly drawn) [Example 1, N-[3-[[(1R,2S)-2-(4-Fluorophenyl)cyclopropyl]amino]-1-(4-methylpiperazin-1-yl)-1-oxopropan-2-yl]-4-(1H-1,2,3-triazol-1-yl)benzamide]											deliquesces when subjected to high humidity	82	93	72	81	degrades at ambient conditions over time
oxalate		changed the form of the material to OXA Form 2	only one change in form was observed	140	change in form to OXA Form 2	~12		changed form under humidity, but not temperature conditions		hygroscopic						
